Test results: PubChem BioAssay AID1259407 (Chemical Carcinogenesis Research Information System (CCRIS), 2018)
The source made the active and inactive calls. The rule behind the calls is not given here.

System: CCRIS mutagenicity, Ames/micronucleus/aberration tests
Assay: CCRIS mutagenicity studies
Details: Test System: AMES SALMONELLA TYPHIMURIUM

## CC(CCl)OP(=O)(OC(C)CCl)OC(C)CCl (centres undefined)
Strain/Indicator: TA97, Metabolic Activation: HAMSTER, LIVER, S-9, AROCLOR 1254 (10%), Method: PREINCUBATION
  mutagenic call: inactive; negative
Strain/Indicator: TA97, Metabolic Activation: HAMSTER, LIVER, S-9, AROCLOR 1254 (30%), Method: PREINCUBATION
  mutagenic call: inactive; negative
Strain/Indicator: TA97, Metabolic Activation: NONE, Method: PREINCUBATION
  mutagenic call: inactive; negative
Strain/Indicator: TA97, Metabolic Activation: RAT, LIVER, S-9, AROCLOR 1254 (10%), Method: PREINCUBATION
  mutagenic call: inactive; negative
Strain/Indicator: TA97, Metabolic Activation: RAT, LIVER, S-9, AROCLOR 1254 (30%), Method: PREINCUBATION
  mutagenic call: inactive; negative
Strain/Indicator: TA98, Metabolic Activation: HAMSTER, LIVER, S-9, AROCLOR 1254 (10%), Method: PREINCUBATION
  mutagenic call: inactive; negative
Strain/Indicator: TA98, Metabolic Activation: HAMSTER, LIVER, S-9, AROCLOR 1254 (30%), Method: PREINCUBATION
  mutagenic call: inactive; negative
Strain/Indicator: TA98, Metabolic Activation: NONE, Method: PREINCUBATION
  mutagenic call: inactive; negative
Strain/Indicator: TA98, Metabolic Activation: RAT, LIVER, S-9, AROCLOR 1254 (10%), Method: PREINCUBATION
  mutagenic call: inactive; negative
Strain/Indicator: TA98, Metabolic Activation: RAT, LIVER, S-9, AROCLOR 1254 (30%), Method: PREINCUBATION
  mutagenic call: inactive; negative
Strain/Indicator: TA100, Metabolic Activation: HAMSTER, LIVER, S-9, AROCLOR 1254 (10%), Method: PREINCUBATION
  mutagenic call: inactive; negative
Strain/Indicator: TA100, Metabolic Activation: HAMSTER, LIVER, S-9, AROCLOR 1254 (30%), Method: PREINCUBATION
  mutagenic call: inactive; negative
Strain/Indicator: TA100, Metabolic Activation: NONE, Method: PREINCUBATION
  mutagenic call: inactive; negative
Strain/Indicator: TA100, Metabolic Activation: RAT, LIVER, S-9, AROCLOR 1254 (10%), Method: PREINCUBATION
  mutagenic call: inactive; negative
Strain/Indicator: TA100, Metabolic Activation: RAT, LIVER, S-9, AROCLOR 1254 (30%), Method: PREINCUBATION
  mutagenic call: inactive; negative
Strain/Indicator: TA1535, Metabolic Activation: HAMSTER, LIVER, S-9, AROCLOR 1254 (10%), Method: PREINCUBATION
  mutagenic call: inactive; negative
Strain/Indicator: TA1535, Metabolic Activation: HAMSTER, LIVER, S-9, AROCLOR 1254 (30%), Method: PREINCUBATION
  mutagenic call: inactive; negative
Strain/Indicator: TA1535, Metabolic Activation: NONE, Method: PREINCUBATION
  mutagenic call: inactive; negative
Strain/Indicator: TA1535, Metabolic Activation: RAT, LIVER, S-9, AROCLOR 1254 (5 OR 30%), Method: PREINCUBATION
  mutagenic call: inactive; negative
Strain/Indicator: TA1535, Metabolic Activation: RAT, LIVER, S-9, AROCLOR 1254 (10%), Method: PREINCUBATION
  mutagenic call: inactive; negative
Strain/Indicator: TA1537, Metabolic Activation: HAMSTER, LIVER, S-9, AROCLOR 1254 (30%), Method: PREINCUBATION
  mutagenic call: inactive; negative
Strain/Indicator: TA1537, Metabolic Activation: NONE, Method: PREINCUBATION
  mutagenic call: inactive; negative
Strain/Indicator: TA1537, Metabolic Activation: RAT, LIVER, S-9, AROCLOR 1254 (30%), Method: PREINCUBATION
  mutagenic call: inactive; negative

## Cc1cnc2c(C)cc3c(nc(N)n3C)c2n1
Strain/Indicator: TA98, Metabolic Activation: RAT, LIVER, S-9, AROCLOR 1254, Method: STANDARD PLATE
  mutagenic call: active; positive
